According to ChEMBL document CHEMBL3792282, “Cinnamic acid amides from Tribulus terrestris displaying uncompetitive α-glucosidase inhibition” (Eur J Med Chem, 2016):
Calls of active or inactive are those of the source. No cut-off for these calls is given here.

Key:
[1] = organism: Homo sapiens; assay: Inhibition of alpha-mannosidase (unknown origin) up to 200 uM
[2] = (§1) Inhibition of baker's yeast alpha-glucosidase using pNPG as substrate by spectrophotometry; set-up: species or system Saccharomyces cerevisiae
[3] = test system: Saccharomyces cerevisiae; assay: as §1
[4] = target: Alpha amylase (Homo sapiens) (UniProt P0DUB6); assay: Inhibition of alpha-amylase (unknown origin) up to 200 uM
Sequence of Alpha amylase (Homo sapiens) (P0DUB6 whole entry, looked up): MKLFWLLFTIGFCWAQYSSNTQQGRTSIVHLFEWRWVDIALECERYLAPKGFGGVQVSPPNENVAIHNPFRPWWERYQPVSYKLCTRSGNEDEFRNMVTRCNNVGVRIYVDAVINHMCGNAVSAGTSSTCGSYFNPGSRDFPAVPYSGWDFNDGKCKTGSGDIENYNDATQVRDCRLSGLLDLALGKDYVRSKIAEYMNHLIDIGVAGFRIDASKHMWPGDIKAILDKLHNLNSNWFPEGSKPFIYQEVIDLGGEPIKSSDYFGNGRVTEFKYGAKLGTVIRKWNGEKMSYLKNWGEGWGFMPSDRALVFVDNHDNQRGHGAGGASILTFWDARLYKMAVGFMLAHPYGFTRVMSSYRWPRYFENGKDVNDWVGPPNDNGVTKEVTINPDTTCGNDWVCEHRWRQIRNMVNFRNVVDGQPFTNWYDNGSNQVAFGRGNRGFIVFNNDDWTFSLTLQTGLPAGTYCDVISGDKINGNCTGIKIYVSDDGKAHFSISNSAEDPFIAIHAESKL

[5] = organism: Homo sapiens; assay: Inhibition of alpha-galactosidase (unknown origin) up to 200 uM
[6] = target: T1, Beta-glucosidase (Homo sapiens) (UniProt Q9HCG7); assay: Inhibition of beta-glucosidase (unknown origin) up to 200 uM
T1 sequence (whole entry): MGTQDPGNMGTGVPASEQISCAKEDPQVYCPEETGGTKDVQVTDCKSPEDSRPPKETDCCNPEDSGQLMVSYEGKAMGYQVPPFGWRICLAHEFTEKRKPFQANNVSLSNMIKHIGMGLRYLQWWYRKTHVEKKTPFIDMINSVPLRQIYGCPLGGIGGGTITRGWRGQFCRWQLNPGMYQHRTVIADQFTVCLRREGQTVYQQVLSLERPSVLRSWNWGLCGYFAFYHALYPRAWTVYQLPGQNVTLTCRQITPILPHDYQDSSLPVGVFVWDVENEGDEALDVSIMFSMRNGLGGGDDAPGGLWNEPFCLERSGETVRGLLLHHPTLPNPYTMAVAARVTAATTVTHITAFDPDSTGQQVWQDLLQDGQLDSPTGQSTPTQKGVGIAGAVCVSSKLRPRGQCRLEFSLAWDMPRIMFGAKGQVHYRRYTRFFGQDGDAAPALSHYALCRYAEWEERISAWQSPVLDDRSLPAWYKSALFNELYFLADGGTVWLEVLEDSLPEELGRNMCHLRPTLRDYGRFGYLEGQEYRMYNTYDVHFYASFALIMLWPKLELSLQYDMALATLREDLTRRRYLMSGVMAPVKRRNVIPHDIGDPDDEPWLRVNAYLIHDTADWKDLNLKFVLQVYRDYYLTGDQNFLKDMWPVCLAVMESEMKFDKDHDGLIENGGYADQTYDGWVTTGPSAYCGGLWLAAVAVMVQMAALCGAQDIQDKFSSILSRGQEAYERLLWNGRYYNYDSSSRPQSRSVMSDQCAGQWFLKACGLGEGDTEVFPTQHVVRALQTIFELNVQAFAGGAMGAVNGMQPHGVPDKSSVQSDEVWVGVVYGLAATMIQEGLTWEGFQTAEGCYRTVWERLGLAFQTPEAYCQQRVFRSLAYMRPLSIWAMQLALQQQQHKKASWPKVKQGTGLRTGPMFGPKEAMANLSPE

[7] = Uncompetitive inhibition of baker's yeast alpha-glucosidase using pNPG as substrate by Cornish-Bowden plot analysis; set-up: species or system Saccharomyces cerevisiae
[8] = test system: Saccharomyces cerevisiae; assay: Uncompetitive inhibition of baker's yeast alpha-glucosidase using pNPG as substrate assessed as ratio of Kik to Kiv at 0.78 uM by Lineweaver-Burk plot analysis
[9] = test system: Saccharomyces cerevisiae; assay: Uncompetitive inhibition of baker's yeast alpha-glucosidase using pNPG as substrate assessed as ratio of Kik to Kiv at 0.39 uM by Lineweaver-Burk plot analysis
[10] = test system: Saccharomyces cerevisiae; assay: Uncompetitive inhibition of baker's yeast alpha-glucosidase using pNPG as substrate assessed as ratio of Kik to Kiv at 1.56 uM by Lineweaver-Burk plot analysis
[11] = test system: Saccharomyces cerevisiae; assay: Uncompetitive inhibition of baker's yeast alpha-glucosidase using pNPG as substrate assessed as ratio of Kik to Kiv at 0.19 uM by Lineweaver-Burk plot analysis

SMILES | inhibition [1] | IC50 [2] [µM] | inhibition [3] | inhibition [4] | inhibition [5] | inhibition [6] | Ki [7] [µM] | Ratio [8] | Ratio [9] | Ratio [10] | Ratio [11]
COc1cc(/C=C/C(=O)NCC(O)c2ccc(O)cc2)ccc1O (centres undefined) | inactive | 188 | Dose-dependent effect | inactive | inactive | inactive |  |  |  |  | 
COc1cc(/C=C/C(=O)NC(O)C(=O)c2ccc(O)cc2)ccc1O (centres undefined) | inactive | 226 | Dose-dependent effect | inactive | inactive | inactive |  |  |  |  | 
O=C(/C=C/c1ccccc1)NCCc1ccc(O)cc1 |  | 215 |  |  |  |  |  |  |  |  | 
COc1cc(/C=C/C(=O)NCC(=O)c2ccc(O)cc2)ccc1O | inactive | 61.5 | Dose-dependent effect | inactive | inactive | inactive | 62.1 |  |  |  | 
O=C(/C=C/c1ccc(O)c(O)c1)NCCc1ccc(O)cc1 | inactive | 1.86 | Dose-dependent effect | inactive | inactive | inactive | 1.77 |  |  |  | 
COc1cc(/C=C/C(=O)NCCc2ccc(O)cc2)ccc1O [N-TRANS-FERULOYL TYRAMINE] | inactive | 10.6 | Dose-dependent effect | inactive | inactive | inactive | 11.3 |  |  |  | 
O=C(CCc1ccc(O)cc1)NCCc1ccc(O)cc1 |  | 19 |  |  |  |  | 18.2 |  |  |  | 

The next compounds have a lower IC50 [2] than those just listed; values first:

inhibition [1] | IC50 [2] [µM] | inhibition [3] | inhibition [4] | inhibition [5] | inhibition [6] | Ki [7] [µM] | Ratio [8] | Ratio [9] | Ratio [10] | Ratio [11] | SMILES
 | 1.63 |  |  |  |  | 1.74 |  |  |  |  | O=C(/C=C/c1ccc(O)cc1)NCCc1ccc(O)c(O)c1
 | 0.31 |  |  |  |  | 0.29 |  |  |  |  | O=C(/C=C/c1ccc(O)cc1)NCCc1ccccc1
inactive | 0.42 | Dose-dependent effect | inactive | inactive | inactive | 0.35 | 1.05 | 1.04 | 1.03 | 1.03 | O=C(/C=C/c1ccc(O)cc1)NCCc1ccc(O)cc1 [N-P-COUMAROYL TYRAMINE]
 | 1.22 |  |  |  |  | 1.38 |  |  |  |  | O=C(/C=C/c1ccc(O)cc1)NCCc1ccc(F)cc1
